This is an account of results in ChEMBL document CHEMBL4480431, “Design, synthesis and biological evaluation of imidazo[1,5-a]pyrazin-8(7H)-one derivatives as BRD9 inhibitors” (Bioorg Med Chem, 2019).

In test [1] the target is T1, Bromodomain-containing protein 9 (Homo sapiens) (UniProt Q9H8M2).
T1 sequence (whole entry): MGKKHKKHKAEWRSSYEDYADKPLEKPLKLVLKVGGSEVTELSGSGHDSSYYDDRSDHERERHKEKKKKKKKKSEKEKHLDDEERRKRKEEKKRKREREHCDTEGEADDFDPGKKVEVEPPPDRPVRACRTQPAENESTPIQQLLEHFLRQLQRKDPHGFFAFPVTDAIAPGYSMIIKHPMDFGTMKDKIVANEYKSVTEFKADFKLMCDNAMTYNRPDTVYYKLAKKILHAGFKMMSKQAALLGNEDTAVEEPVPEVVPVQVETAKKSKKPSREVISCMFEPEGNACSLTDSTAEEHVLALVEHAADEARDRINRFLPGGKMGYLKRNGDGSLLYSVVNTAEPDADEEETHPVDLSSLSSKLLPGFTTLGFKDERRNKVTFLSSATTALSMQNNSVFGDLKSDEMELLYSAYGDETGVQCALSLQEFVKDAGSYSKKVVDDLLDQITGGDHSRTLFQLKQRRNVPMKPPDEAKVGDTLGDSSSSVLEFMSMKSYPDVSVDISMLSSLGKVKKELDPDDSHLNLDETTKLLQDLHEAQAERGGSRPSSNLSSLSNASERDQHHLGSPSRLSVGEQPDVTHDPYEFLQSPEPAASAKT
As to the kind of experiment: Inhibition of BRD9 (unknown origin) at 1 uM using H4 peptide as substrate preincubated for 15 mins followed by substrate addition and measured after 60 mins by Alphascreen assay relative to control.

Test [2] has as its target T2, Bromodomain-containing protein 9 (Homo sapiens, UniProt Q9H8M2).
T2 sequence (Q9H8M2 whole entry): T1 sequence (whole entry)
In words: Inhibition of BRD9 (unknown origin) using H4 peptide as substrate preincubated for 15 mins followed by substrate addition and measured after 60 mins by Alphascreen assay.

Test [3] has as its target Bromodomain-containing protein 4 (Homo sapiens) (UniProt O60885). In words: Inhibition of recombinant human BRD4 (44 to 168) residues expressed in Escherichia coli at 1 uM using H4 peptide as substrate preincubated for 15 mins followed by substrate addition and measured after 60 mins by Alphascreen assay relative to control.
A further test deals with A549. In words: Antiproliferative activity against human A549 cells. It is filed as functional, cell-based.
A further test concerns EOL1. As to the kind of experiment: Antiproliferative activity against human EOL-1 cells. It is filed as functional, cell-based.

Bounds are passed on as bounds.

In the case of `COc1cccc(-c2cn(C)c(=O)c3cncn23)c1`, in test [1], the inhibition is 16%. In test [2], this molecule came in with an IC50 of 3.01 µM.

`C/C=C/Cn1cc(-c2ccc(C(=O)N3CCOCC3)c(Cl)c2)n2cncc2c1=O`: the inhibition in test [1] was 91%; in test [3] it was -2%. Further, the half-maximal inhibitory concentration (IC50) in test [2] is 0.465 µM; in the test on A549, greater than 10 µM; in the test on EOL1, 8.17 µM.

For the molecule `Cn1cc(-c2ccccc2)n2cncc2c1=O`, the inhibition in test [1] was 7%. The concentration for half-maximal inhibition (IC50) in test [2] stood at 7.21 µM.

With `C/C=C/Cn1cc(-c2ccc(C(=O)N3CCCC3)c(Cl)c2)n2cncc2c1=O`, the inhibition in test [1] was 87%; in test [3], -4%. Further, the IC50 in test [2] worked out at 0.438 µM; in the test on A549, 8.23 µM; with EOL1, 5.82 µM.

On to `C/C=C/Cn1cc(-c2ccc(C(=O)N3CCN(C)CC3)c(Cl)c2)n2cncc2c1=O`, for which the inhibition in test [1] was 80%; in test [3] it was -3%. Moreover, the figures for the 50% inhibitory concentration (IC50) (in test [2]; in the test on A549; in the test on EOL1) were 0.557 µM, greater than 10 µM and 7.03 µM, respectively.

For `CCn1cc(-c2ccc(C(=O)NC3CCS(=O)(=O)CC3)c(Cl)c2)n2cncc2c1=O`, in test [1], the inhibition stood at 75%. This molecule showed a concentration for half-maximal inhibition (IC50) in test [2] of 1.02 µM.

Turning to `C/C=C/Cn1cc(-c2ccc(C(=O)N3CCOCC3)c(F)c2)n2cncc2c1=O`, in test [1], the inhibition stood at 38%. Half-maximal inhibition in test [2] (IC50) was put at 0.967 µM.

Turning to `C/C=C/Cn1cc(-c2ccc(C(=O)N3CCOCC3)cc2Cl)n2cncc2c1=O`, in test [1], the inhibition was determined as 42%. The same molecule had an IC50 in test [2] of 0.763 µM.

Consider `CCS(=O)(=O)Nc1ccc(Oc2ccc(F)cc2)c(-c2cn(C)c(=O)c3cncn23)c1`, for which the inhibition in test [3] amounted to 100%.

Take `Cn1cc(-c2ccc(C(=O)N3CCOCC3)c(Cl)c2)n2cncc2c1=O`: the inhibition in test [1] is 27%. The molecule also gave an IC50 in test [2] of 1.5 µM.

`CCCn1cc(-c2ccc(C(=O)N3CCNCC3)c(Cl)c2)n2cncc2c1=O`: the inhibition in test [1] was 86%. In addition, the midpoint of inhibition in test [2], the IC50, lay at 0.93 µM.

Take `CCCCn1cc(-c2ccc(C(=O)N3CCNCC3)c(Cl)c2)n2cncc2c1=O`: in test [1], the inhibition was 68%. In test [2], the concentration for half-maximal inhibition (IC50) came to 0.73 µM.

In the case of `CCCCn1cc(-c2ccc(C(=O)NC3CCS(=O)(=O)CC3)c(Cl)c2)n2cncc2c1=O`, the inhibition in test [1] amounted to 21%.

Turning to `C/C=C/Cn1cc(-c2ccc(C(=O)N3CCN(S(C)(=O)=O)CC3)c(F)c2)n2cncc2c1=O`, in test [1], the inhibition was 71%. The molecule further showed an IC50 in test [2] of 0.652 µM.

With `C/C=C/Cn1cc(-c2ccc(C(=O)N3CCC(C(N)=O)CC3)c(Cl)c2)n2cncc2c1=O`, the figures for the inhibition in test [1] and in test [3] were 94% and -5%, respectively. Besides, the IC50 amounted to 0.262 µM in test [2], 7.15 µM with A549 and 3.42 µM in the test on EOL1.

In the case of `CCn1cc(-c2ccc(C(=O)N3CCOCC3)c(Cl)c2)n2cncc2c1=O`, in test [1], the inhibition turned out to be 5%.

For the molecule `CCn1cc(-c2ccc(C(=O)N3CCNCC3)c(Cl)c2)n2cncc2c1=O`, in test [1], the inhibition was 83%. Also, half-maximal inhibition in test [2] (IC50) required 0.802 µM.

`C/C=C/Cn1cc(-c2ccc(C(=O)N3CCN(S(C)(=O)=O)CC3)c(Cl)c2)n2cncc2c1=O`: the inhibition in test [1] was 94%; in test [3], -5%. Further, the IC50 in test [2] is 0.103 µM; in the test with A549 it was 6.63 µM; with EOL1, 2.29 µM.

For the molecule `Cn1cc(-c2ccc(C(=O)N3CCOCC3)cc2)n2cncc2c1=O`, in test [1], the inhibition amounted to 18%. The midpoint of inhibition in test [2], the IC50, lay at 2.33 µM.

`CCCn1cc(-c2ccc(C(=O)NC3CCS(=O)(=O)CC3)c(Cl)c2)n2cncc2c1=O`: the inhibition in test [1] is 23%.

On to `C/C=C/Cn1cc(-c2ccc(C(=O)NC3CCS(=O)(=O)CC3)c(Cl)c2)n2cncc2c1=O`, for which the results for the inhibition in test [1] and in test [3] were 100% and -5%, respectively. Also, the results for the half-maximal inhibitory concentration (IC50) (in test [2]; in the test on A549; with EOL1) were 0.48 µM, greater than 10 µM and 5.34 µM, respectively.

For the molecule `CCOC(=O)Nc1cc(-c2ccc(C)c(NS(C)(=O)=O)c2)nn2c(C)nnc12`, the inhibition in test [1] fell in the range of 87 to 90%.

Take `C/C=C/Cn1cc(-c2ccc(C(=O)N3CCN(S(C)(=O)=O)CC3)cc2Cl)n2cncc2c1=O`: the inhibition in test [1] is 52%. The midpoint of inhibition in test [2], the IC50, lay at 0.84 µM.

Take `C/C=C/Cn1cc(-c2ccc(C(=O)N3CCNCC3)c(Cl)c2)n2cncc2c1=O`: the inhibition in test [1] is 99%; in test [3], -6%. Besides, the half-maximal inhibitory concentration (IC50) stood at 0.035 µM in test [2], 6.12 µM with A549 and 1.76 µM with EOL1.

For `CCCCn1cc(-c2ccc(C(=O)N3CCOCC3)c(Cl)c2)n2cncc2c1=O`, the inhibition in test [1] was determined as 48%. Besides, half-maximal inhibition in test [2] (IC50) required 0.827 µM.

As for `Cn1cc(-c2cccc(C(F)(F)F)c2)n2cncc2c1=O`, in test [1], the inhibition was 6%. Further, inhibition in test [2] was half-maximal at 7.41 µM (IC50).
